From patent publication US6495699B2, “Metalloproteinase inhibitors, pharmaceutical compositions containing them, and their use” (Agouron Pharmaceuticals Inc., priority 1996, dated 2002)
pKi: −log10 of the molar value. Where a name gives a salt, the structure may show the parent alone.

Experiments:
Human matrilysin (Matr) = target: T1, Human matrilysin (Matr) (Homo sapiens, UniProt P09237); assay: Fluorometric MCA-peptide hydrolysis assay, matrilysin (Matr); type: biochemical; conditions: apparent Ki; 10 μM MCA peptide substrate, 37° C., pH 7.5; read-out: Matr (Ki,app)
T1 construct: the catalytic domain was liberated by treatment with 2 mM APMA at 37° C. for 2 hours; ubiquitin (cleaved yes); made in house; host or cells: E. coli
T1 sequence (P09237 95-267): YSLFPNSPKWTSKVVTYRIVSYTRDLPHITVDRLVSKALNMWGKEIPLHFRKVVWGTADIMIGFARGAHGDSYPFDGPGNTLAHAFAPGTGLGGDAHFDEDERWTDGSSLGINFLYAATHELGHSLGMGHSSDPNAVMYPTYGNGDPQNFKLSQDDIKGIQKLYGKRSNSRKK
Method: Human matrilysin (Matr) was expressed in E. coli as a fusion protein with ubiquitin. After purification of the matrilysin/ubiquitin fusion from inclusion bodies, the catalytic domain was liberated by treatment with 2 mM APMA at 37° C. for 2 hours. Final purification was complete using copper chelate chromatography.
(§1) Assays were performed in assay buffer (50 mM Tricine pH 7.5, 200 mM sodium chloride, 10 mM calcium chloride, 0.5 mM zinc acetate containing 2% dimethyl sulfoxide (DMSO)) once the substrate and inhibitor were diluted into it. Stock solutions of inhibitors were prepared in 100% DMSO. Stock solutions of the substrate were prepared in 100% DMSO at a concentration of 6 mM.
(§2) The assay method was based on the hydrolysis of MCA-Pro-Leu-Gly-Leu-DPA-Ala-Arg-NH2 (American Peptide Co.) at 37° C. (see Knight, C. G. et al., FEBS, 1992, 296, 263-266). The fluorescence changes were monitored with a Perkin-Elmer LS-50B fluorimeter using an excitation wavelength of 328 nm and an emission wavelength of 393 nm. The substrate concentration used in the assays was 10 μM. The inhibitor was diluted into the assays from a solution in 100% DMSO, and controls substituted an equal volume of DMSO so that the final DMSO concentration from inhibitor and substrate dilution in all assays was 2%. […] Proper determination of steady-state rates of substrate cleavage required assay lengths of 60 minutes to allow for complete equilibration of the enzyme-inhibitor complex.
(§3) The Km for the MCA peptide substrate with the matrix metalloproteinases is quite high and exceeds its solubility under assay conditions. Consequently, the apparent Ki (Ki,app) was determined to describe the strength of inhibition. However, in this case, Ki,app would be essentially equal to Ki since [S]<<Km. For the determination of Ki,app, the concentration of the inhibitor was varied at a constant and low concentration of substrate and the steady-state rates of fluorescence change determined. In most cases absorptive quench due to the presence of ligand was not observed. For slow-binding inhibitors, onset of inhibition curves were collected for at least 45 minutes so that equilibrium was established. Steady-state rates of fluorescence change were obtained by fitting a curve to an equation for a single exponential decay containing a linear phase. The fitted value of the linear phase was taken as the steady-state rate. The steady-state rates were fitted to the Michaelis equation describing competitive inhibition by non-linear methods. Data resulting from tight-binding inhibition was analyzed, and Ki,app determined by fitting the data to the tight-binding equation of Morrison (Biochem. Biophys. Acta, vol. 185, pp. 269-286 (1969)) by non-linear methods.

[1] = target: T2, catalytic domain of human stromelysin (Hsln) (Homo sapiens, UniProt P08254); assay: Fluorometric MCA-peptide hydrolysis assay, stromelysin (Hsln); type: biochemical; conditions: apparent Ki; 10 μM MCA peptide substrate, 37° C., pH 7.5; read-out: Hsln (Ki,app)
T2 construct: The catalytic domain of human stromelysin (Hsln) was obtained by expression and purification of a C-terminally truncated prostromelysin-1; made in house; host or cells: E. coli BL21
T2 sequence (P08254 100-272 limits assumed): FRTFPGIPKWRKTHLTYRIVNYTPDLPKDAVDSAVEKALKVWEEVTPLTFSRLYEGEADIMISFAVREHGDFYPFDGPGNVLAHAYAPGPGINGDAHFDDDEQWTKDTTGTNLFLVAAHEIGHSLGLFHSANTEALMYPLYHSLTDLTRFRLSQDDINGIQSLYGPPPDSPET
Method: The catalytic domain of human stromelysin (Hsln) was obtained by expression and purification of a C-terminally truncated prostromelysin-1 from E. coli host BL21 (see Marcy et al. Biochem., 1991, 30, 6476). The subsequent activation of the mature form (Hsln) was completed with 2 mM APMA for 1 hour at 37° C., followed by separation using a sizing column.
as §1, §2, §3

[2] = target: T3, human progelatinase A (GelA), catalytic and fibronectin-like portion (Homo sapiens, UniProt P08253); assay: Fluorometric MCA-peptide hydrolysis assay, gelatinase A (GelA); type: biochemical; conditions: apparent Ki; 10 μM MCA peptide substrate, 37° C., pH 7.5
T3 construct: The catalytic and fibronectin-like portion of human progelatinase A (GelA) was expressed as a fusion protein with ubiquitin; ubiquitin; made in house; host or cells: E. coli
T3 sequence (P08253 110-465 limits assumed): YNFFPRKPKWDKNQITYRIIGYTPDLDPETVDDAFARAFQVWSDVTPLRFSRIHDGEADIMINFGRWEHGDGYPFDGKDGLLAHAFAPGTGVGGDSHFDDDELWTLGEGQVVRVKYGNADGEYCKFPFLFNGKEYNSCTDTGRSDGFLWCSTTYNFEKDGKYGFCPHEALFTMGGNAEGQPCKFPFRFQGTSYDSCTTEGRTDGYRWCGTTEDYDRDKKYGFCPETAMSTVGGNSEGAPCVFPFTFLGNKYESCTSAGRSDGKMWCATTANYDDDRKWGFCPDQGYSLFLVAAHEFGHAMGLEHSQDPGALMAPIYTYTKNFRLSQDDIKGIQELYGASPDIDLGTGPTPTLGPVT
Method: The catalytic and fibronectin-like portion of human progelatinase A (GelA) was expressed as a fusion protein with ubiquitin in E. Coli. Assays were carried out on autocatalytically activated material.
as §1, §2, §3

[3] = target: T4, human collagenase-3 (Coll3) (Homo sapiens, UniProt P45452); assay: Fluorometric MCA-peptide hydrolysis assay, collagenase-3 (Coll3); type: biochemical; conditions: apparent Ki; 10 μM MCA peptide substrate, 37° C., pH 7.5; read-out: Coll3 (Ki,app)
T4 construct: the catalytic domain was liberated by treatment with 2 mM APMA at room temperature overnight; ubiquitin (N, cleaved yes); made in house; host or cells: E. coli
Method: The propeptide and catalytic domain of human collagenase-3 (Coll3) was expressed in E. coli as an N-terminal fusion protein with ubiquitin. After purification of the fusion from inclusion bodies, the catalytic domain was liberated by treatment with 2 mM APMA at room temperature overnight. Final purification was completed using copper chelate chromatography.
as §1, §2
as §3, with “In most cases absorptive quench due to the presence of ligand was not observed.” left out

Compound	melting point	pKi (Human matrilysin (Matr))	pKi [1]	GelA (Ki,app) [2]	pKi [3]
CC(C)(C)[C@H](NC(=O)[C@@H](CC(=O)O)n1ccc(-c2ccc(-c3ccc(C#N)cc3)cc2)c1)C(=O)Nc1ccncc1 (as salt: salt) [Example 5(d), 3(R)-[3-(4′-Cyanobiphenyl-4-yl)-1H-pyrrol-1-yl]-N-[2,2-dimethyl-1(S)-(pyridin-4-ylcarbamoyl)propyl]succinamic Acid Formate Salt]	134 to 136 °C	–	–	–	–
CC(C)(C)[C@@H](CO)NC(=O)C(CC(=O)O)n1cnc(-c2ccc(-c3ccccc3)cc2)c1 (mixture of isomers) [Example 18(b), 3(RS)-(3-Biphenyl-4-yl-1H-imidazol-1-yl)-N-(2,2-dimethyl-1(S)-hydroxymethylpropyl)succinamic Acid]	145 to 150 °C	< 4.00	5.52	–	–
CC(C)(O)C(CO)NC(=O)[C@@H](CC(=O)O)n1ccc(-c2ccc(-c3ccccc3)cc2)c1 (stereo in doubt) [Example 1(i), 3(R)-[3-(Biphenyl-4-yl)-1H-pyrrol-1-yl]-N-[2-hydroxy-1(S)-(hydroxymethyl)-2-methylpropyl]succinamic Acid]	150 to 152 °C	–	6.95	8 nM	7.05
CC(C)(C)[C@H](NC(=O)C(CC(=O)O)c1ccsc1)C(=O)Nc1ccncc1 (stereo in doubt) [Example 17(c), N-[2,2-Dimethyl-1(S)-(pyridin-4-ylcarbamoyl)-propyl]-3(R)-thien-3-yl-succinamic Acid]	205 °C (dec.)	6.81	6.03	157 nM	–
COC[C@H](Cc1ccccc1)NC(=O)[C@@H](CC(=O)O)n1ccc(-c2ccc(-c3ccccc3)cc2)c1 [Example 1(f), N-(1(S)-Benzyl-2-methoxyethyl)-3(R)-[3-(biphenyl-4-yl)-1H-pyrrol-1-yl]succinamic Acid]	247 °C	6.00	6.48	93 nM	6.27
CCCc1ccc(-c2ccn([C@H](CC(=O)O)C(=O)N[C@H](C(=O)NC)C(C)(C)C)c2)cc1 [Example 1(j), N-[2,2-Dimethyl-1(S)-(methylcarbamoyl)propyl]-3(R)-[3-(4-propylphenyl)-1H-pyrrol-1-yl]succinamic Acid]	104 to 106 °C	–	6.88	1.43 nM	8.03
COC(=O)c1ccc(NC(=O)[C@H](CC(C)C)NC(=O)[C@@H](CC(=O)O)n2ccc(-c3ccc(-c4ccccc4)cc3)c2)cc1 [Example 1(k), 4-[2S-[2(R)-[3-(Biphenyl-4-yl)-1H-pyrrol-1-yl]-3-carboxy-propionylamino]-4-methyl-pentanoylamino]benzoic Acid Methyl Ester]	209 to 211 °C	7.96	9.82	1.9 nM	7.40
N#Cc1ccc(-c2ccc(-c3ccn([C@H](CC(=O)O)C(=O)N[C@H](CO)Cc4ccccc4)c3)cc2)cc1 [Example 4(a), N-(1(S)-Benzyl-2-hydroxyethyl)-3(R)-[3-(4′-cyanobiphenyl-4-yl)-1H-pyrrol-1-yl]succinamic Acid]	189 to 192 °C	5.28	7.52	1.3 nM	8.57
NC(=O)c1ccc(-c2ccc(-c3ccn([C@H](CC(=O)O)C(=O)N[C@H](CO)Cc4ccccc4)c3)cc2)cc1 [Example 4(b), N-(1-Benzyl-2-hydroxyethyl)-3(R)-[3-(4′-carbamoylbiphenyl-4-yl)-1H-pyrrol-1-yl]succinamic Acid]	218 to 220 °C	5.82	7.64	1.11 nM	8.67
CC(C)(C)[C@@H](CO)NC(=O)[C@@H](CC(=O)O)n1ccc(-c2ccc(-c3ccc(C(N)=O)cc3)cc2)c1 [Example 4(c), 3(R)-[3-(4′-Carbamoylbiphenyl-4-yl)-1H-pyrrol-1-yl]-N-(1(S)-hydroxymethyl-2,2-dimethyl-propyl)succinamic Acid]	192 to 194 °C	5.60	7.19	7.2 nM	–
CC(C)C[C@H](NC(=O)[C@@H](CC(=O)O)n1ccc(-c2ccc(-c3ccncc3)cc2)c1)c1ncc[nH]1.O=CO [Example 7(c), N-[1(S)-(1H-Imidazol-2-yl)-3-methylbutyl]-3(R)-[3-[4-(pyridin-4-yl)phenyl]-1H-pyrrol-1-yl]succinamic Acid Formate Salt]	–	5.27	7.59	0.055 nM	8.89
O=C(C[C@H](C(=O)N[C@H]1Cc2cn(c3ccccc23)CCCCCCNC1=O)n1cccc1)NO [Example 8(c), N ^4Hydroxy-N^1-(9-oxo-1,8-diaza-tricyclo[10.6.1.0^13,18]nonadeca-12(19),13,15,17-tetraen-10S-yl)-3(R)-1H-(pyrrol-1-yl)succinamide]	158 to 165 °C	–	–	–	–
CCC[C@H](C(=O)O)[C@H](C(=O)N[C@H](CO)Cc1ccccc1)n1ccc(-c2ccc(-c3ccccc3)cc2)c1 [Example 10(a), 2S-[1R-(1(S)-Benzyl-2-hydroxyethylcarbamoyl)-(3-biphenyl-4-yl-1H-pyrrol-1-yl)-methyl]-pentanoic Acid]	179 to 181 °C (dec.)	6.21	–	3.3 nM	7.30
CC(C)C[C@H](NC(=O)[C@@H](CC(=O)O)c1ccn(-c2ccc(-c3ccc(C#N)cc3)cc2)c1)c1ncc[nH]1 [Example 14(c), 3(S)-[1-(4′-Cyanobiphenyl-4-yl)-1H-pyrrol-3-yl]-N-[1(S)-(1H-imidazol-2-yl)-3-methylbutyl]succinamic Acid]	206 to 210 °C (dec.)	–	7.75	0.044 nM	–
O=C(O)C[C@H](C(=O)N[C@H](CO)Cc1ccccc1)n1cc(-c2ccc(-c3ccccc3)cc2)cn1 [Example 16, N-(1(S)-Benzyl-2-hydroxyethyl)-3(R)-[4-(biphenyl-4-yl)-pyrazol-1-yl]succinamic Acid]	154 to 159 °C	4.20	5.82	81 nM	–
